Assay results reported in ChEMBL document CHEMBL1133903, “Thrombin receptor (PAR-1) antagonists. Solid-phase synthesis of indole-based peptide mimetics by anchoring to a secondary amide” (Bioorg Med Chem Lett, 2001).

Tests used:
Homo sapiens [1] = species on record: Homo sapiens; test: In vitro inhibition of human platelet aggregation induced by 3 ug/ml collagen.; type: functional
[2] = target: T1, Proteinase-activated receptor 1 (Homo sapiens, UniProt P25116); test: In vitro displacement of [3H]S-(p-F-Phe)-homoarginine-K Y-NH2 (at a concentration of 10 nM) from thrombin receptor (PAR-1) on the membranes of CHRF-288-11 cells
T1 sequence (P25116 whole entry): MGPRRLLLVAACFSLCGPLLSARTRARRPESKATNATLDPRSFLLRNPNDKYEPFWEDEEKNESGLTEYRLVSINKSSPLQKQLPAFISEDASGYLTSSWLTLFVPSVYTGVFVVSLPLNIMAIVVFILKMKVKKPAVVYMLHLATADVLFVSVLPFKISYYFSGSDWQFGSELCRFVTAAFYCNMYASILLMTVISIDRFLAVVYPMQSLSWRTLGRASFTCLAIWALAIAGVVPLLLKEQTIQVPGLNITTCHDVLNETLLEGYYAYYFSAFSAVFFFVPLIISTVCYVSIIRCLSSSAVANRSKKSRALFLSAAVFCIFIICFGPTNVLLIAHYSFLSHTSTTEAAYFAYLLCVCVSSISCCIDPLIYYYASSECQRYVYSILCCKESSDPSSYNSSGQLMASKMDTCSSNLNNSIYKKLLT

Homo sapiens [3] = species on record: Homo sapiens; test: In vitro inhibition of human platelet aggregation induced by thromboxane mimetic U-46,619 at 0.3 uM.; type: functional, organism-based
Homo sapiens [4] = species on record: Homo sapiens; test: In vitro inhibition of human platelet aggregation induced by collagen (at a concentration of 3 ug/mL); IA means Inactive at 50 uM; type: functional
Homo sapiens [5] = species on record: Homo sapiens; test: In vitro inhibition of human platelet aggregation induced by thromboxane mimetic U-46,619 (at a concentration of 0.3 uM); type: functional
Homo sapiens [6] = species on record: Homo sapiens; test: In vitro inhibition of human platelet aggregation induced by SFLLRN-NH2 (at a concentration of 2 uM); IA means Inactive at 50 uM; type: functional
Homo sapiens [7] = species on record: Homo sapiens; test: In vitro inhibition of human platelet aggregation induced by collagen (at a concentration of 3 ug/mL); In active at 50 uM concentration; type: functional
Homo sapiens [8] = species on record: Homo sapiens; test: In vitro inhibition of human platelet aggregation induced by thromboxane mimetic U-46,619 (at a concentration of 0.3 uM concentration; type: functional

Structure (SMILES)	IC50 (Homo sapiens [1])	IC50 [2]	IC50 (Homo sapiens [3])	IC50 (Homo sapiens [4])	IC50 (Homo sapiens [5])	IC50 (Homo sapiens [6])	IC50 (Homo sapiens [7])	IC50 (Homo sapiens [8])
Cc1ccccc1Cn1cc(CN2CCCC2)c2ccc(NC(=O)N[C@@H](Cc3ccc([N+](=O)[O-])cc3)C(=O)N[C@@H](CCCN=C(N)N)C(=O)NCc3ccccc3)cc21	20.6 µM	0.8 µM	Not Active	–	–	–	–	–
COc1ccc(C[C@H](NC(=O)Nc2ccc3c(CN4CCCC4)cn(Cc4ccc(F)cc4)c3c2)C(=O)N[C@@H](CCCN=C(N)N)C(=O)NCc2ccccc2)cc1	–	2.2 µM	Not Active	Not Active	–	–	–	–
COc1ccc(C[C@H](NC(=O)Nc2ccc3c(CN4CCCC4)cn(Cc4ccc(F)cc4)c3c2)C(=O)N[C@@H](CCCN=C(N)N)C(=O)NCCCc2ccccc2)cc1	16.1 µM	–	–	–	21.4 µM	–	–	–
COc1ccc(C[C@H](NC(=O)Nc2ccc3c(CN4CCCC4)cn(Cc4ccc(OC(F)(F)F)cc4)c3c2)C(=O)N[C@@H](CCCNC(=N)N)C(=O)NCC2CCCCC2)cc1	40.4 µM	2.5 µM	–	–	33 µM	–	–	–
N=C(N)NCCC[C@H](NC(=O)[C@H](Cc1ccc([N+](=O)[O-])cc1)NC(=O)Nc1ccc2c(CN3CCCC3)cn(Cc3ccc(F)cc3)c2c1)C(=O)NCc1ccccc1	16.5 µM	1.1 µM	Not Active	–	–	–	–	–
COc1ccc(C[C@H](NC(=O)Nc2ccc3c(CN4CCCCC4)cn(Cc4cccc(C)c4)c3c2)C(=O)N[C@@H](CCCNC(=N)N)C(=O)NCC2CCCCC2)cc1	27.5 µM	3.2 µM	–	–	36.3 µM	–	–	–
NC(=O)NCCCC(NC(=O)[C@H](Cc1ccc(F)c(F)c1)NC(=O)Nc1ccc2c(CN3CCCC3)cn(Cc3c(Cl)cccc3Cl)c2c1)C(=O)NCc1ccccc1 (some centres undefined)	–	0.24 µM	Not Active	Not Active	–	–	–	–
CSCCC(NC(=O)[C@H](Cc1ccc(F)c(F)c1)NC(=O)Nc1ccc2c(CN3CCCC3)cn(Cc3c(Cl)cccc3Cl)c2c1)C(=O)NCc1ccccc1 (some centres undefined)	–	11.2 µM	Not Active	Not Active	–	–	–	–
N=C(N)NCCC[C@H](NC(=O)[C@H](Cc1ccc(F)c(F)c1)NC(=O)Nc1ccc2c(CN3CCCC3)cn(Cc3c(Cl)cccc3Cl)c2c1)C(=O)NCc1ccccc1	–	0.82 µM	Not Active	Not Active	–	–	–	–
COc1ccc(C[C@H](NC(=O)Nc2ccc3c(CN4CCCC4)cn(Cc4ccccc4Cl)c3c2)C(=O)N[C@@H](CCCN=C(N)N)C(=O)NCCCc2ccccc2)cc1	12 µM	0.38 µM	–	–	44.4 µM	–	–	–
COc1ccc(C[C@H](NC(=O)Nc2ccc3c(CN4CCCCC4)cn(Cc4ccccc4C)c3c2)C(=O)N[C@@H](CCCN=C(N)N)C(=O)NCCCc2ccccc2)cc1	13 µM	0.73 µM	Not Active	–	–	–	–	–
NCCC(NC(=O)[C@H](Cc1ccc(F)c(F)c1)NC(=O)Nc1ccc2c(CN3CCCC3)cn(Cc3c(Cl)cccc3Cl)c2c1)C(=O)NCc1ccccc1 (some centres undefined)	–	0.44 µM	–	–	–	–	Not Active	Not Active
COc1ccc(C[C@H](NC(=O)Nc2ccc3c(CN4CCCC4)cn(Cc4ccccc4C)c3c2)C(=O)N[C@@H](CCCN=C(N)N)C(=O)NCCCc2ccccc2)cc1	11.9 µM	1 µM	–	–	44.2 µM	–	–	–
CCN(CC)Cc1cn(Cc2cccc(C)c2)c2cc(NC(=O)N[C@@H](Cc3ccc(OC)cc3)C(=O)N[C@@H](CCCN=C(N)N)C(=O)NCCCc3ccccc3)ccc12	10.2 µM	2.6 µM	Not Active	–	–	–	–	–
Cc1ccccc1Cn1cc(CN2CCCC2)c2ccc(NC(=O)N[C@@H](Cc3ccc(C#N)cc3)C(=O)N[C@@H](CCCN=C(N)N)C(=O)NCc3ccccc3)cc21	25.9 µM	6.4 µM	Not Active	–	–	–	–	–
NCCC[C@H](NC(=O)[C@H](Cc1ccc(F)c(F)c1)NC(=O)Nc1ccc2c(CN3CCCC3)cn(Cc3c(Cl)cccc3Cl)c2c1)C(=O)NCc1ccccc1	15.7 µM	0.5 µM	Not Active	–	–	–	–	–
CCN(CC)Cc1cn(Cc2ccc(F)cc2)c2cc(NC(=O)N[C@@H](Cc3ccc(OC)cc3)C(=O)N[C@@H](CCCN=C(N)N)C(=O)NCC3CCCCC3)ccc12	25.8 µM	3.1 µM	–	–	39.5 µM	–	–	–
COc1ccc(C[C@H](NC(=O)Nc2ccc3c(CN4CCCC4)cn(Cc4c(Cl)cccc4Cl)c3c2)C(=O)N[C@@H](CCCNC(=N)N)C(=O)NCc2ccccc2)cc1 [RWJ-54003]	46.3 µM	1.3 µM	Not Active	–	–	–	–	–

Results, then the compound that gave them:

IC50 (Homo sapiens [1])	IC50 [2]	IC50 (Homo sapiens [3])	IC50 (Homo sapiens [4])	IC50 (Homo sapiens [5])	IC50 (Homo sapiens [6])	IC50 (Homo sapiens [7])	IC50 (Homo sapiens [8])	Structure (SMILES)
–	1.8 µM	Not Active	Not Active	–	–	–	–	NC(=O)CCC(NC(=O)[C@H](Cc1ccc(F)c(F)c1)NC(=O)Nc1ccc2c(CN3CCCC3)cn(Cc3c(Cl)cccc3Cl)c2c1)C(=O)NCc1ccccc1 (some centres undefined)
33.1 µM	5.6 µM	–	–	43.5 µM	–	–	–	COc1ccc(C[C@H](NC(=O)Nc2ccc3c(CN4CCCCC4)cn(Cc4ccc(OC(F)(F)F)cc4)c3c2)C(=O)N[C@@H](CCCNC(=N)N)C(=O)NCC2CCCCC2)cc1
–	3.5 µM	Not Active	Not Active	–	Not Active	–	–	COC(=O)c1ccc(Cn2cc(CN3CCCC3)c3ccc(NC(=O)N[C@@H](Cc4ccc(OC)cc4)C(=O)N[C@@H](CCCN=C(N)N)C(=O)NCC4CCCCC4)cc32)cc1
26.1 µM	–	–	–	26.2 µM	–	–	–	COc1ccc(C[C@H](NC(=O)Nc2ccc3c(CN4CCCCC4)cn(Cc4ccc(F)cc4)c3c2)C(=O)N[C@@H](CCCN=C(N)N)C(=O)NCC2CCCCC2)cc1
36.9 µM	0.92 µM	Not Active	–	–	–	–	–	NCC(NC(=O)[C@H](Cc1ccc(F)c(F)c1)NC(=O)Nc1ccc2c(CN3CCCC3)cn(Cc3c(Cl)cccc3Cl)c2c1)C(=O)NCc1ccccc1 (some centres undefined)
–	–	Not Active	Not Active	–	–	–	–	N#Cc1ccc(C[C@H](NC(=O)Nc2ccc3c(CN4CCCC4)cn(Cc4c(Cl)cccc4Cl)c3c2)C(=O)N[C@@H](CCCNC(=N)N)C(=O)NCc2ccccc2)cc1
34 µM	1.3 µM	Not Active	–	–	–	–	–	O=C(Nc1ccc2c(CN3CCCC3)cn(Cc3c(Cl)cccc3Cl)c2c1)N[C@@H](Cc1ccc(F)c(F)c1)C(=O)NC(Cc1c[nH]cn1)C(=O)NCc1ccccc1 (some centres undefined)
17 µM	2.5 µM	Not Active	–	–	–	–	–	CCN(CC)Cc1cn(Cc2ccccc2C)c2cc(NC(=O)N[C@@H](Cc3ccc(OC)cc3)C(=O)N[C@@H](CCCN=C(N)N)C(=O)NCCCc3ccccc3)ccc12
37.6 µM	2.6 µM	–	–	12.5 µM	–	–	–	COc1ccc(C[C@H](NC(=O)Nc2ccc3c(CN4CCCC4)cn(Cc4ccc(F)cc4)c3c2)C(=O)N[C@@H](CCCN=C(N)N)C(=O)NCC2CCCCC2)cc1
21.3 µM	0.3 µM	–	–	41.9 µM	–	–	–	NCCCC[C@H](NC(=O)[C@H](Cc1ccc(F)c(F)c1)NC(=O)Nc1ccc2c(CN3CCCC3)cn(Cc3c(Cl)cccc3Cl)c2c1)C(=O)NCc1ccccc1
–	–	Not Active	Not Active	–	–	–	–	COc1ccc(C[C@H](NC(=O)Nc2ccc3c(CN4CCC4)cn(Cc4ccc(F)cc4)c3c2)C(=O)N[C@@H](CCCN=C(N)N)C(=O)NCc2ccccc2)cc1
